By Papp A→B is commonly meant how fast a substance crosses the layer from the apical side. A low value points to slow passage.

A value given as a limit tells only on which side of the number the result lay.

A short description of this data set: Transcellular transport test using Caco2 cell. Particulars: human, Caco-2, apical-to-basolateral (A-to-B), pH=7.4, 10 µM compound. In kind it is in vitro ADME. Summed up:
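Caco2 monolayers grown 20–22 days were dosed apically in HBSS/20 mM HEPES pH 7.4 (10 mM DMSO stock diluted 1000-fold, 0.1% DMSO) for 90 min at 37 °C. Basolateral compound was measured by LC-MS/MS and donor concentration by UV-HPLC. Papp (A-to-B) was derived from the slope and graded A–D.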
In the case of `O=C(O)C[C@H](NC(=O)CNC(=O)c1cc(NC2=NCC(F)CN2)c2cn[nH]c2c1)c1cc(OC(F)F)cc(OC(F)F)c1` (stereo partly drawn) [30-(b), (3S)-3-(3,5-bis(difluoromethoxy)phenyl)-3-(2-(4-((5-fluoro-1,4,5,6-tetrahydropyrimidin-2-yl)amino)-1H-indazole-6-carboxamido)acetamido)propanoic acid], the Papp A→B at 90 min, 10 µM fell in the range of 0.5 to 1 ×10⁻⁶ cm/s. Consider `O=C(O)C[C@H](NC(=O)CNC(=O)c1cc(NC2=NCC(F)CN2)c2cn[nH]c2c1)c1cc(Cl)ccc1F` (stereo partly drawn) [22-(b), (3S)-3-(5-chloro-2-fluorophenyl)-3-(2-(4-((5-fluoro-1,4,5,6-tetrahydropyrimidin-2-yl)amino)-1H-indazole-6-carboxamido)acetamido)propanoic acid], for which the Papp A→B at 90 min, 10 µM is > 1 ×10⁻⁶ cm/s. Turning to `O=C(O)C[C@H](NC(=O)CNC(=O)c1cc(NC2=NCCCN2)c2cn[nH]c2c1)c1cc(Cl)cc(C(F)(F)F)c1` [51-(b), (S)-3-(3-chloro-5-(trifluoromethyl)phenyl)-3-(2-(4-((1,4,5,6-tetrahydropyrimidin-2-yl)amino)-1H-indazole-6-carboxamido)acetamido)propanoic acid], the Papp A→B at 90 min, 10 µM is > 1 ×10⁻⁶ cm/s.

As for `O=C(O)C[C@H](NC(=O)CNC(=O)c1cc(NC2=NCC(F)CN2)c2cn[nH]c2c1)c1cc(C(F)(F)F)ccc1F` (stereo partly drawn) [11-(b), (3S)-3-(2-(4-((5-fluoro-1,4,5,6-tetrahydropyrimidin-2-yl)amino)-1H-indazole-6-carboxamido)acetamido)-3-(2-fluoro-5-(trifluoromethyl)phenyl)propanoic acid], the Papp A→B at 90 min, 10 µM was > 1 ×10⁻⁶ cm/s. As for `O=C(O)C[C@H](NC(=O)CNC(=O)c1cc(NC2=NCC(F)CN2)c2cn[nH]c2c1)c1cccc(Cl)c1` (stereo partly drawn) [41-(b), (3S)-3-(3-chlorophenyl)-3-(2-(4-((5-fluoro-1,4,5,6-tetrahydropyrimidin-2-yl)amino)-1H-indazole-6-carboxamido)acetamido)propanoic acid], the figure is > 1 ×10⁻⁶ cm/s; as for `O=C(O)C[C@H](NC(=O)CNC(=O)c1cc(NC2=NCC(F)CN2)c2cn[nH]c2c1)c1cc(Cl)cc(C(F)(F)F)c1` (stereo partly drawn) [1-(b)], > 1 ×10⁻⁶ cm/s; as for `O=C(O)C[C@H](NC(=O)CNC(=O)c1cc(NC2=NCC(F)CN2)c2cn[nH]c2c1)c1cc(C(F)(F)F)cc(C(F)(F)F)c1` (stereo partly drawn) [7-(b), (3S)-3-(3,5-bis(trifluoromethyl)phenyl)-3-(2-(4-((5-fluoro-1,4,5,6-tetrahydropyrimidin-2-yl)amino)-1H-indazole-6-carboxamido)acetamido)propanoic acid], 0.5 to 1 ×10⁻⁶ cm/s. As for `O=C(O)C[C@H](NC(=O)CNC(=O)c1cc(NC2=NCC(F)CN2)c2cn[nH]c2c1)c1cc(Cl)cc(Br)c1` (stereo partly drawn) [18-(b), (3S)-3-(3-bromo-5-chlorophenyl)-3-(2-(4-((5-fluoro-1,4,5,6-tetrahydropyrimidin-2-yl)amino)-1H-indazole-6-carboxamido)acetamido)propanoic acid], the figure is > 1 ×10⁻⁶ cm/s; as for `O=C(O)C[C@H](NC(=O)CNC(=O)c1cc(NC2=NCC(F)CN2)cc2[nH]ncc12)c1cc(Br)cc(C(F)(F)F)c1` (stereo partly drawn) [53-(b), (3S)-3-(3-bromo-5-(trifluoromethyl)phenyl)-3-(2-(6-((5-fluoro-1,4,5,6-tetrahydropyrimidin-2-yl)amino)-1H-indazole-4-carboxamido)acetamido)propanoic acid], 0.1 to 0.5 ×10⁻⁶ cm/s.

These data come from US20250049806A1, “PHARMACEUTICAL COMPOSITION FOR PROVIDING TREATMENT FOR OR PREVENTING ALPORT SYNDROME” (UBE Corporation, priority 2021, published 2025).
